Measured values as given in article PMC9844085, “Bioinformatics-Structural Approach to the Search for New D-Amino Acid Oxidases” (Acta Naturae, 2022).

Target: T1, NhyDAAO (Natronosporangium hydrolyticum, UniProt A0A895YFV4)
T1 construct: gene JQS43_10680; recombinant, gene cloned, expression in E. coli in progress
T1 sequence (A0A895YFV4 1-316): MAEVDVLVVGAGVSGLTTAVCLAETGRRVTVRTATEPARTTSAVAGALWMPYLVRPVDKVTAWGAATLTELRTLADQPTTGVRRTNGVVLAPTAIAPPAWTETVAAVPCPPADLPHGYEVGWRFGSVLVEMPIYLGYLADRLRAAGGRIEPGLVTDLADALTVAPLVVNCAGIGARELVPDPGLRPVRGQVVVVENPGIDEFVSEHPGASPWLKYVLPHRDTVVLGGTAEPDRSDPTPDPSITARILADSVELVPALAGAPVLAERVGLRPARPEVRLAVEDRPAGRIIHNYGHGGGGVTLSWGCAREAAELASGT
Experiment: D-amino acid oxidase activity, preliminary experiments, method not given
Assay type: cell-based
Conditions: conditions and enzyme purity not told; named among the best substrates

Structure (SMILES)	D-amino acid oxidase activity, preliminary experiments, method not given
CC(C)C[C@@H](N)C(=O)O [D-Leu]	Preliminary experiments confirmed that D-Leu and D-Phe are the best substrates for NhyDAAO
N[C@H](Cc1ccccc1)C(=O)O [D-Phe]	Preliminary experiments confirmed that D-Leu and D-Phe are the best substrates for NhyDAAO
